This note sets out measurements from patent publication US8841299B2, “Substituted pyrrolo[1,2-a]pyrazines as tankyrase inhibitors” (Hoffman-La Roche Inc., priority 2012, dated 2014).

The target of one experiment is T1, Tankyrase 1 (TNKS1) (Homo sapiens, UniProt O95271).
T1 construct: His6-TNKS1, MW=28.2 KDa (construct: 1088-1327, I266M)
Nature of the experiment: μHTS-TNKS-IWR2 TR-FRET binding assay, TNKS1. As to the method:
(§1) μHTS-TNKS-IWR2 TR-FRET Binding Assay
(§2) (10 μL/well in BD1536-well plate, a single point)
(§3) Biotin-IWR2: 10 mM Biotin-IWR2 stock in DMSO, stored at −20° C.
(§4) Assay buffer 1a (AB1a) for TNKS dilution: 50 mM Tris, pH 7.4, 100 mM sodium chloride solution, 1 mM magnesium chloride solution, 1 mM DL-dithiothreitol solution, 0.2 mg/mL bovine serum albumin solution, 0.025% NP-40.
(§5) Assay buffer 1b (AB1b) for Biotin-IWR2 dilution: 50 mM Tris, pH 7.4, 100 mM sodium chloride solution, 1 mM magnesium chloride solution, 1 mM DL-dithiothreitol solution, 0.2 mg/mL bovine serum albumin solution, 0.05% NP-40
(§6) Assay buffer 1c (AB1c) for compound dilution: 50 mM Tris, pH 7.4, 100 mM sodium chloride solution, 1 mM magnesium chloride solution, 1 mM DL-dithiothreitol solution, 0.2 mg/mL bovine serum albumin solution
(§7) Assay buffer 2 (AB2) for Eu/APC: 50 mM Tris, pH 7.4, 100 mM sodium chloride solution, 1 mM magnesium chloride solution, 0.2 mg/mL bovine serum albumin solution
(§8) Prepare BLANK well stock solution: 5% DMSO/AB1b buffer
(§9) Prepare TNKS1 stock solution (5× stock): 300 nM TNKS in AB1a buffer
(§10) Transfer 3 μL/well of above solution (solution 1, 2, 3) to an empty assay plate (BD1536-well plate) as follows:
(§11) TOTAL and cpd wells: Solution 1 (Biotin-IWR2):
(§12) BLANK wells: Solution 2 (No Biotin-IWR2):
(§13) POSITIVE CONTROL wells: Solution 3 (Biotin-IWR2+XAV939)
(§14) Transfer 3 μL/well of the above diluted compound solutions or compound dilution buffer to the above assay plate.
(§15) Add 2 μL/well of 300 nM TNKS stock solution (4) to every well in the above assay plate
(§16) Centrifuge the assay plate at 2100 rpm for 2 minutes.
(§17) Incubate the assay plate at 26° C. for 30 minutes.
(§18) Add 2 μL/well 3.5 nMEu/50 nM APC solution (5) to every well in the above assay plate.
(§19) Incubate the assay plate at 26° C. for 60 minutes.
(In TR-FRET formats the signal depends on donor and acceptor labels being close together.)

A further experiment has as its target T2, tankyrase 2 (TNKS2) (Homo sapiens, UniProt Q9H2K2).
T2 construct: His6-tankyrase 2 (construct: 934-1166) (His6-TNKS2)
Nature of the experiment: μHTS-TNKS-IWR2 TR-FRET binding assay, TNKS2 in place of TNKS1. As to conditions: His6-TNKS2 (construct 934-1166), Biotin-IWR2 60 nM. How it is done:
as §1, §2
(§20) Tankyrase 1 (TNKS1): 184.3 μM=5.2 mg/mL His6-TNKS1, MW=28.2 KDa (construct: 1088-1327, I266M) in 20 mM Tris pH 8, 150 mM NaCl, 10% glycerol, and 0.5 mM TCEP Alternatively, in place of His6-TNKS1 can use either His6-tankyrase 2 (construct: 934-1166) (His6-TNKS2) or His6-PARP1 (full length).
as §3
Positive control: 10 mM XAV 939 in DMSO, stored at −20° C.
(§21) Eu-Streptavidin: 38.1 μM (2.1 mg/mL) Eu-SA (Bio #Eu-2212, Lot #N 18001-BDHO2)
(§22) APC-anti-His Ab: 8.50 μM SL-APC, 8.26 μM anti-6His antibody-SureLight APC (Columia Bioscience, Cat #D3-1711, Lot #N01010-AAH04)
(§23) Assay plate: BD 1536-well, clear/black plate (Cat #353255)
as §4, §5, §6, §7
(§24) Prepare Biotinylated IWR2 stock solution (3.33× stock) for TOTL and cpd wells: 200 nM Biotin-IWR2 in 5% DMSO/AB1b buffer
as §8
(§25) Prepare POSITIVE CONTROL well stock solution (3.33× stock): 200 nM XAV939 in 200 nM Biotin-IWR2/5% DMSO/AB1b buffer
as §9
(§26) (Alternatively, use TNKS2 or PARP1 stock solutions.)
(§27) Prepare Eu/APC stock solution (5× stock): 3.5 nM Eu-SA/50 nM APC-His6Ab in AB2 buffer
(§28) Add 25 μL/well 1.5% DMSO/AB1c buffer in each compound well to the compound concentration at 74 μM in 8.8% DMSO/AB1c buffer or in the 2 μL DMSO CONTROL wells (BLANK, TOTAL and POSITIVE wells) in the compound plate.
as §10, §11, §12, §13, §14, §15, §16, §17, §18, §19
(§29) Read the assay plate immediately at excitation wavelength of 330 nm and emission wavelength of […] in time resolved fluorescence mode.
XAV939 (+ve control): 60 nM at ˜70% Inhibition
(§30) General Library compounds: 22.23 μM in 4% DMSO

A further experiment has as its target T3, PARP1 (Homo sapiens, UniProt P09874).
T3 construct: or His6-PARP1 (full length)
Nature of the experiment: μHTS-TNKS-IWR2 TR-FRET binding assay, PARP1 in place of TNKS1. The note with it: His6-PARP1 (full length), Biotin-IWR2 60 nM. How it is done:
as §1, §2, §20, §3
Positive control: 10 mM […] in DMSO, stored at −20° C.
as §21, §22, §23, §4, §5, §6, §7, §24, §8, §25, §9, §26, §27, §28, §10, §11, §12, §13, §14, §15, §16, §17, §18, §19, §29, §30

In general, IC50 refers to the concentration that gives 50% inhibition. Low readings indicate higher potency, high ones lower potency.

T3 sequence (P09874 whole entry): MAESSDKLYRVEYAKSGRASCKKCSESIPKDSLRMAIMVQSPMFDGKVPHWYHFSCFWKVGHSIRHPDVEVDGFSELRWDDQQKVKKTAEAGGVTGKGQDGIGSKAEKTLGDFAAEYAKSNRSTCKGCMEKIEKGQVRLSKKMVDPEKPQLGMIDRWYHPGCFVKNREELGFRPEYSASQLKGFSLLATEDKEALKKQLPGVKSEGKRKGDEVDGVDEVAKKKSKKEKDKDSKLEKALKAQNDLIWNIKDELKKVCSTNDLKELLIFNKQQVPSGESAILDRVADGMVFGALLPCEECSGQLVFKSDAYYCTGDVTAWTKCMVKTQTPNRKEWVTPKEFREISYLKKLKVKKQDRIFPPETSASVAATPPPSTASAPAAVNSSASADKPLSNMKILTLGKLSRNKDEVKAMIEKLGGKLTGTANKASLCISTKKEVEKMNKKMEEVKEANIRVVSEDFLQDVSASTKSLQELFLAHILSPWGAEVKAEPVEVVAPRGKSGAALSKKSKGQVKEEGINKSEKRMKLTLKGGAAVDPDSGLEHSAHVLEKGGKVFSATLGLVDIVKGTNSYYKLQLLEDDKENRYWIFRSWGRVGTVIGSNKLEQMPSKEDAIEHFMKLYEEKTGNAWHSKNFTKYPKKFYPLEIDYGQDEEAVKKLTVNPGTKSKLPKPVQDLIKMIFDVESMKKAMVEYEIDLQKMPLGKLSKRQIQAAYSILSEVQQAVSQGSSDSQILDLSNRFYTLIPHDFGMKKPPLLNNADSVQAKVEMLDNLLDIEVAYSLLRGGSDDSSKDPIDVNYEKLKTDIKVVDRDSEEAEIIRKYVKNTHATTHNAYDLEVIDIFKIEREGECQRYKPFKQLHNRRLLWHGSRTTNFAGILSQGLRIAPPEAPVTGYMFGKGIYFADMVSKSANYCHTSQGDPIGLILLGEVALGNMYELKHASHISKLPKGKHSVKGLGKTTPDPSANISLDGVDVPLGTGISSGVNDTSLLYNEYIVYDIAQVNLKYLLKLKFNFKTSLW
T2 sequence (Q9H2K2 934-1166): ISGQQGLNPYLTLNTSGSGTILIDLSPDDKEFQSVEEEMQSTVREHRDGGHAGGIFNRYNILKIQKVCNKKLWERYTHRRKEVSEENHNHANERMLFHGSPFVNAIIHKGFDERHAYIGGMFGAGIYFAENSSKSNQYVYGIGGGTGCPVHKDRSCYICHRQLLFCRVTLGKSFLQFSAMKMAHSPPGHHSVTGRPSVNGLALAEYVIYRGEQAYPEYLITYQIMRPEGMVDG
T1 sequence (O95271 1088-1327): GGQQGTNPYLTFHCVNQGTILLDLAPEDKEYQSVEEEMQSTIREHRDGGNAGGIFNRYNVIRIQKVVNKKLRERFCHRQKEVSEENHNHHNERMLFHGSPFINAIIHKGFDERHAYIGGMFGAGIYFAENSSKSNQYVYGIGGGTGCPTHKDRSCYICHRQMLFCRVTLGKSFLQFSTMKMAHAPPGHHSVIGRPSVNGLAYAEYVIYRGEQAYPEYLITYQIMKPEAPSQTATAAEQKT

In the case of `COc1ccc(-c2cn3c(Br)ccc3c(=O)[nH]2)cc1` [Example 1, 6-Bromo-3-(4-methoxy-phenyl)-2H-pyrrolo[1,2-a]pyrazin-1-one], the IC50 on Tankyrase 1 (TNKS1) was 54 nM; at tankyrase 2 (TNKS2), 145 nM; at PARP1, > 50000 nM.
As for `N#Cc1ccc2c(=O)[nH]c(-c3ccc(C(F)(F)F)cc3)cn12` [Example 2, 1-Oxo-3-(4-trifluoromethyl-phenyl)-1,2-dihydro-pyrrolo[1,2-a]pyrazine-6-carbonitrile], the IC50 at Tankyrase 1 (TNKS1) worked out at 232 nM; on tankyrase 2 (TNKS2) it was 995 nM; at PARP1, 31200 nM.
Turning to `N/C(=N\O)c1ccc2c(=O)[nH]c(-c3ccc(C(F)(F)F)cc3)cn12` [Example 3, N-Hydroxy-1-oxo-3-(4-trifluoromethyl-phenyl)-1,2-dihydro-pyrrolo[1,2-a]pyrazine-6-carboxamidine], the IC50 at Tankyrase 1 (TNKS1) was 192 nM; at tankyrase 2 (TNKS2) it was 1260 nM; on PARP1, > 50000 nM.
With `NC(=O)c1ccc2c(=O)[nH]c(-c3ccc(C(F)(F)F)cc3)cn12` [Example 4, 1-Oxo-3-(4-trifluoromethyl-phenyl)-1,2-dihydro-pyrrolo[1,2-a]pyrazine-6-carboxylic acid amide], the IC50 on Tankyrase 1 (TNKS1) is 770 nM; on tankyrase 2 (TNKS2) it was 1900 nM; on PARP1, 29500 nM.
As for `N=C(N)c1ccc2c(=O)[nH]c(-c3ccc(C(F)(F)F)cc3)cn12` [Example 5, 1-Oxo-3-(4-trifluoromethyl-phenyl)-1,2-dihydro-pyrrolo[1,2-a]pyrazine-6-carboxamidine], the 50% inhibitory concentration (IC50) is 6790 nM at Tankyrase 1 (TNKS1), 12700 nM on tankyrase 2 (TNKS2) and > 50000 nM on PARP1.
As for `O=c1[nH]c(-c2ccc(C(F)(F)F)cc2)cn2c(C3=NCCN3)ccc12` [Example 6, 6-(4,5-Dihydro-1H-imidazol-2-yl)-3-(4-trifluoromethyl-phenyl)-2H-pyrrolo[1,2-a]pyrazin-1-one], the IC50 stood at 1110 nM at Tankyrase 1 (TNKS1), 1840 nM at tankyrase 2 (TNKS2) and 34900 nM at PARP1.
For `Cc1ccc2c(=O)[nH]c(-c3ccc(C(F)(F)F)cc3)cn12` [Example 7, 6-Methyl-3-(4-trifluoromethyl-phenyl)-2H-pyrrolo[1,2-a]pyrazin-1-one], in that order: 32 nM, 72 nM and 172 nM.
As to `O=c1[nH]c(-c2ccc(C(F)(F)F)cc2)cn2c(CO)ccc12` [Example 8, 6-Hydroxymethyl-3-(4-trifluoromethyl-phenyl)-2H-pyrrolo[1,2-a]pyrazin-1-one], the figures for the IC50 on Tankyrase 1 (TNKS1), at tankyrase 2 (TNKS2) and on PARP1 were 17 nM, 715 nM and 11400 nM, respectively.
For the compound `Cc1ccc2c(=O)[nH]c(N3CCN(c4ccccc4F)CC3)cn12` [Example 9, 3-[4-(2-Fluoro-phenyl)-piperazin-1-yl]-6-methyl-2H-pyrrolo[1,2-a]pyrazin-1-one], the results for the IC50 at Tankyrase 1 (TNKS1), on tankyrase 2 (TNKS2) and on PARP1 were 68 nM, 68 nM and 2740 nM, respectively.
Turning to `O=c1[nH]c(-c2ccc(C(F)(F)F)cc2)cn2c(Br)ccc12` [Example 10, 6-Bromo-3-(4-trifluoromethyl-phenyl)-2H-pyrrolo[1,2-a]pyrazin-1-one], the IC50 is 56 nM on Tankyrase 1 (TNKS1), 158 nM on tankyrase 2 (TNKS2) and 1250 nM on PARP1.
